Where “and” joins values, the source holds several entries; their conditions need not be identical. Identical values can stand only once. Toxic doses and inconclusive results are not listed. How the source made its calls: active means survival T/C of 150% or more; inactive means T/C below 125% in these data.
Tested on: CD2F1 mice, L1210 leukemia ip, survival T/C
Assay: NCI In Vivo Anticancer Drug Screen. Data for tumor model L1210 Leukemia (intraperitoneal) in CD2F1 (CDF1) mice
Conditions: higher = longer survival
How it was run: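 Mice carrying a transplanted tumor received test compound or vehicle alone. The value is the measurement in the treated group divided by that in the vehicle-treated control group.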

[1] = endpoint: mean survival time, dose: 100.0 mg/kg/injection, schedule: Q04DX003 (ip), vehicle: saline
[2] = endpoint: mean survival time, dose: 50.0 mg/kg/injection, schedule: Q01DX009 (ip), vehicle: water
[3] = endpoint: mean survival time, dose: 100.0 mg/kg/injection, schedule: Q04DX003 (ip), vehicle: saline with Tween-80
[4] = endpoint: mean survival time, dose: 200.0 mg/kg/injection, schedule: Q04DX003 (ip), vehicle: saline with Tween-80
[5] = endpoint: mean survival time, dose: 400.0 mg/kg/injection, schedule: Q04DX003 (ip), vehicle: saline with Tween-80
[6] = endpoint: mean survival time, dose: 75.0 mg/kg/injection, schedule: Q01DX001 (ip), vehicle: saline
[7] = endpoint: mean survival time, dose: 150.0 mg/kg/injection, schedule: Q01DX001 (ip), vehicle: saline
[8] = endpoint: mean survival time, dose: 100.0 mg/kg/injection, schedule: Q04DX002 (ip), vehicle: saline with Tween-80
[9] = endpoint: mean survival time, dose: 200.0 mg/kg/injection, schedule: Q04DX002 (ip), vehicle: saline with Tween-80
[10] = endpoint: mean survival time, dose: 400.0 mg/kg/injection, schedule: Q04DX002 (ip), vehicle: saline with Tween-80

Measured: T/C

N#CN=[N+]([O-])c1ccc(C(=O)O)cc1
inactive: endpoint: mean survival time, dose: 1.87 mg/kg/injection, schedule: Q01DX009 (ip), vehicle: Klucel (hydroxypropylcellulose) (HPC) 106 % of control | endpoint: mean survival time, dose: 3.75 mg/kg/injection, schedule: Q01DX009 (ip), vehicle: Klucel (hydroxypropylcellulose) (HPC) 95 % of control | endpoint: mean survival time, dose: 7.5 mg/kg/injection, schedule: Q01DX009 (ip), vehicle: Klucel (hydroxypropylcellulose) (HPC) 95 % of control | endpoint: mean survival time, dose: 15.0 mg/kg/injection, schedule: Q01DX009 (ip), vehicle: Klucel (hydroxypropylcellulose) (HPC) 96 % of control | endpoint: mean survival time, dose: 30.0 mg/kg/injection, schedule: Q01DX009 (ip), vehicle: Klucel (hydroxypropylcellulose) (HPC) 98 % of control | endpoint: mean survival time, dose: 60.0 mg/kg/injection, schedule: Q01DX009 (ip), vehicle: Klucel (hydroxypropylcellulose) (HPC) 106 % of control | endpoint: median survival time, dose: 1.87 mg/kg/injection, schedule: Q01DX009 (ip), vehicle: Klucel (hydroxypropylcellulose) (HPC) 101 % of control | endpoint: median survival time, dose: 3.75 mg/kg/injection, schedule: Q01DX009 (ip), vehicle: Klucel (hydroxypropylcellulose) (HPC) 95 % of control | endpoint: median survival time, dose: 7.5 mg/kg/injection, schedule: Q01DX009 (ip), vehicle: Klucel (hydroxypropylcellulose) (HPC) 95 % of control | endpoint: median survival time, dose: 15.0 mg/kg/injection, schedule: Q01DX009 (ip), vehicle: Klucel (hydroxypropylcellulose) (HPC) 109 % of control | endpoint: median survival time, dose: 30.0 mg/kg/injection, schedule: Q01DX009 (ip), vehicle: Klucel (hydroxypropylcellulose) (HPC) 93 % of control

COc1ccc(C(=O)NC[n+]2ccccc2)cc1
inactive: [1] 109 % of control

N#CCN(CC#N)c1ccccc1
inactive: endpoint: mean survival time, dose: 1.56 mg/kg/injection, schedule: Q01DX001 (ip), vehicle: other 95 % of control | endpoint: mean survival time, dose: 3.13 mg/kg/injection, schedule: Q01DX001 (ip), vehicle: other 95 % of control | endpoint: mean survival time, dose: 6.25 mg/kg/injection, schedule: Q01DX001 (ip), vehicle: other 98 % of control and 100 % of control

N=c1c2cnn(C3OC(CO)C(O)C3O)c2ncn1N (stereo not given)
inactive: endpoint: mean survival time, dose: 6.25 mg/kg/injection, schedule: Q01DX009 (ip), vehicle: water 103 % of control | endpoint: mean survival time, dose: 12.5 mg/kg/injection, schedule: Q01DX009 (ip), vehicle: water 115 % of control and 112 % of control | [2] 91 % of control

O=S(=O)(Nc1ccccn1)c1ccc(Cl)cc1
inactive: [3] 91 % of control | [4] 95 % of control | [5] 90 % of control

O=C(O)c1[nH]c2c([N+](=O)[O-])cc([N+](=O)[O-])cc2c1C(=O)O
inactive: [6] 103 % of control | [7] 97 % of control

O=C1C=CC(=O)C=C1 (tested in a mixture with another compound)
inactive: endpoint: mean survival time, dose: 1.0 mg/kg/injection, schedule: Q01DX009 (ip), vehicle: saline sonified 98 % of control | endpoint: mean survival time, dose: 1.0 mg/kg/injection, schedule: Q04DX003 (ip), vehicle: saline with Tween-80 97 % of control | endpoint: mean survival time, dose: 2.0 mg/kg/injection, schedule: Q01DX009 (ip), vehicle: saline sonified 94 % of control | endpoint: mean survival time, dose: 2.0 mg/kg/injection, schedule: Q04DX003 (ip), vehicle: saline with Tween-80 95 % of control | endpoint: mean survival time, dose: 3.0 mg/kg/injection, schedule: Q01DX009 (ip), vehicle: saline sonified 98 % of control | endpoint: mean survival time, dose: 3.0 mg/kg/injection, schedule: Q04DX003 (ip), vehicle: saline with Tween-80 95 % of control | endpoint: mean survival time, dose: 6.0 mg/kg/injection, schedule: Q01DX009 (ip), vehicle: saline sonified 90 % of control | endpoint: mean survival time, dose: 6.0 mg/kg/injection, schedule: Q04DX003 (ip), vehicle: saline with Tween-80 97 % of control

COC(=O)C(=O)O
inactive: endpoint: mean survival time, dose: 100.0 mg/kg/injection, schedule: Q01DX009 (ip), vehicle: saline with Tween-80 93 % of control | [1] 95 % of control | endpoint: mean survival time, dose: 200.0 mg/kg/injection, schedule: Q01DX009 (ip), vehicle: saline with Tween-80 95 % of control | endpoint: mean survival time, dose: 200.0 mg/kg/injection, schedule: Q04DX003 (ip), vehicle: saline 104 % of control | endpoint: mean survival time, dose: 400.0 mg/kg/injection, schedule: Q04DX003 (ip), vehicle: saline 93 % of control

CC(C)=C/C(C)=C(/C#N)C(=O)OC(C)C
inactive: [6] 97 % of control | [7] 97 % of control

COc1cc2ccc(/C=N/NC(N)=S)cc2cc1OC
inactive: endpoint: mean survival time, dose: 25.0 mg/kg/injection, schedule: Q01DX009 (ip), vehicle: water 94 % of control | [2] 98 % of control | endpoint: mean survival time, dose: 100.0 mg/kg/injection, schedule: Q01DX009 (ip), vehicle: water 102 % of control | endpoint: mean survival time, dose: 200.0 mg/kg/injection, schedule: Q01DX009 (ip), vehicle: water 93 % of control

COc1c(C)c2c(c(O)c1C/C=N\O)C(=O)OC2
inactive: [8] 100 % of control | [9] 100 % of control | [10] 100 % of control

C=C1C(=O)OC2CC3(C)OC3CC/C(C)=C/C(OC(C)=O)C12 (stereo not given)
inactive: [3] 105 % of control | [4] 91 % of control

NC(=O)C12CCCCC1CCC2 (stereo not given)
inactive: [3] 103 % of control | [4] 96 % of control | [5] 97 % of control

c1ccc(-c2ncnc3ccccc23)cc1
inactive: [3] 103 % of control | [4] 101 % of control | [5] 97 % of control

Cc1ccc2c(c1)-c1[nH]c3ccccc3c1CS2
inactive: endpoint: mean survival time, dose: 50.0 mg/kg/injection, schedule: Q01DX009 (ip), vehicle: Klucel (hydroxypropylcellulose) (HPC) 109 % of control | endpoint: mean survival time, dose: 100.0 mg/kg/injection, schedule: Q01DX009 (ip), vehicle: Klucel (hydroxypropylcellulose) (HPC) 107 % of control | endpoint: mean survival time, dose: 200.0 mg/kg/injection, schedule: Q01DX009 (ip), vehicle: Klucel (hydroxypropylcellulose) (HPC) 107 % of control

CC(C)(C)c1cc(O)c(O)c(C(C)(C)C)c1
inactive: endpoint: mean survival time, dose: 100.0 mg/kg/injection, schedule: Q04DX003 (ip), vehicle: other 101 % of control | endpoint: mean survival time, dose: 200.0 mg/kg/injection, schedule: Q04DX003 (ip), vehicle: other 95 % of control

C(=NCc1ccccc1)c1ccc2c(c1)OCO2
inactive: [8] 100 % of control | [9] 100 % of control | [10] 100 % of control

Oc1ccc(/C=N/N=C/c2ccc(O)c(O)c2)cc1O
inactive: endpoint: median survival time, dose: 25.0 mg/kg/injection, schedule: Q01DX009 (ip), vehicle: saline with Tween-80 108 % of control | endpoint: median survival time, dose: 50.0 mg/kg/injection, schedule: Q01DX009 (ip), vehicle: saline with Tween-80 110 % of control | endpoint: median survival time, dose: 100.0 mg/kg/injection, schedule: Q01DX009 (ip), vehicle: saline with Tween-80 112 % of control

CCOc1ccccc1C=C(C#N)C#N
inactive: endpoint: mean survival time, dose: 25.0 mg/kg/injection, schedule: Q04DX002 (ip), vehicle: saline with Tween-80 96 % of control | endpoint: mean survival time, dose: 50.0 mg/kg/injection, schedule: Q04DX002 (ip), vehicle: saline with Tween-80 96 % of control | [8] 93 % of control

CC1(C)C(N2CCOCC2)C(c2ccccc2)S1(=O)=O (stereo not given)
inactive: endpoint: mean survival time, dose: 100.0 mg/kg/injection, schedule: Q01DX001 (ip), vehicle: saline with Tween-80 101 % of control | endpoint: mean survival time, dose: 200.0 mg/kg/injection, schedule: Q01DX001 (ip), vehicle: saline with Tween-80 105 % of control | endpoint: mean survival time, dose: 400.0 mg/kg/injection, schedule: Q01DX001 (ip), vehicle: saline with Tween-80 105 % of control
